{
  "source": "patent US20250177398A1",
  "about": "“CARBONIC ANHYDRASE ENZYMES FOR REGULATING MAST CELL HEMATOPOIESIS AND TYPE 2 INFLAMMATION” (RUTGERS, THE STATE UNIVERSITY OF NEW JERSEY, priority 2015, published 2025)",
  "system": "atopic dermatitis (AD)-like disease",
  "experiment": "MC903-induced atopic dermatitis-like disease",
  "format": "in vivo, mouse",
  "conditions": "MC903-treated mice, 2-3 mg MZ i.p. daily",
  "protocol": "Single cell suspensions were made from mesenteric, or skin draining lymph nodes. Lymph node cells were cultured in RPMI complete medium and treated with and without anti-CD3 (BD Pharmingen: clone 145-2C11) and anti-CD28 antibodies (BD Pharmingen: clone 37.51) for 72 hours. Standard sandwich ELISA (eBioscience) was performed to measure IL-4 (clones 11B11 and BVD6-24G2), IL-5 (clones TRFK5 and TRFK4) and IL-13 (clones eBio13A and eBio1316H) levels in the cell-free supernatants. Serum quantities of Mcpt1 and IgE were measured by commercial sandwich ELISA kits (BD Biosciences, eBioscience).\nMice were treated once a day topically with 2 nmol of MC903 (calcipotriol, Tocris Bioscience) in 20 μl of ethanol for 6 days as described previously (Kim, et al., 2013. Sci Transl Med 5: 170ra116). MC903-treated mice were treated with vehicle (1:5 DMSO to PBS) or 2-3 mg of MZ i.p. daily and sacrificed on day 7 post-treatment.",
  "data": [
    {"compound": "CC(=O)/N=c1/sc(S(N)(=O)=O)nn1C", "note": "[MZ, methazolamide]", "values": [
      {"measurement": "type 2 cytokine production (skin-draining LN IL-4, IL-5, IL-13) vs controls", "setting": "day 7 (FIG. 3E)", "value": "equivalent or significantly increased"},
      {"measurement": "AD-like pathology vs controls", "setting": "day 7 (FIG. 3F)", "value": "similar"}
    ]}
  ]
}
